{"source": "patent US20130281361A1", "about": "“METHODS OF TREATING AND PREVENTING RHINOVIRUS INFECTION” (priority 2010, published 2013)", "molecules": {"B1": {"name": "HNP-5: recombinant human α-defensin (Pepnet), α-5; probably human defensin 5 (HD5) (protein, UniProt Q01523 20-94, looked up)", "Defensin alpha 5": "ESLQERADEATTQKQSGEDNQDLAISFAGNGLSALRTSGSQARATCYCRTGRCATRESLSGVCEISGRLYRLCCR", "modifications": "Defensin-5 recombinant"}}, "key": {"rhinovirus (Rv16)": {"system": "rhinovirus (Rv16)", "experiment": "Rhinovirus (Rv16) infectivity: virus incubated with peptide, titer quantified by TCID50 assay using H1-HeLa cells", "assay_type": "cell-based", "conditions": "for concentration at which maximal efficacy was reached / reduction of rhinovirus titer at maximal efficacy: Rv16, 1 hour at 37° C.; for reduction of rhinovirus titer at maximal efficacy: at the concentration given under E5", "procedure": "To determine if β-defensins had antiviral activity against rhinovirus, recombinant human β-defensins (Peprotech, Rocky Hill, N.J.) were used in assays with rhinovirus (Rv16). Recombinant β-defensin proteins were diluted in PBS to the desired concentrations (0.25-1.25 μg/mL). Virus was added to each tube to a final volume of 40 μL and incubated for 1 hour at 37° C. plus 5% CO2. After incubation, 200 uL of cell culture media was added to each tube and viral titers were quantified in a 50% Tissue Culture Infectious Dose (TCID50) assay using H1-HeLa cells. The TCID50 assay is a standard endpoint dilution assay that is used to quantify how much of a given virus is present in a sample. The limit of detection for rhinovirus in the assay was 1.2 log10 TCID50.\nHuman α-defensins and LL-37, a broadly expressed antimicrobial peptide from the cathelicidin family, were also tested for antiviral activity against rhinovirus. Recombinant human α-defensins (HNP-1, HNP-3 and HNP-5) (Pepnet, Louisville, Ky.) and recombinant LL-37 (Pepnet, Louisville, Ky.) were used in assays with rhinovirus (Rv16) to determine their antiviral activity. Recombinant HBD-3 (Peprotech, Rocky Hill, N.J.) was used as a control. The recombinant proteins were diluted in PBS to the desired concentrations (see FIG. 2). Virus was added to each tube to a final volume of 40 μL and incubated for 1 hour at 37° C. plus 5% CO2. After incubation, 200 μL of cell culture media was added to each tube and the concentration of virus was quantified by TCID50 assay using H1-HeLa cells. The limit of detection for rhinovirus in the assay was 1.2 log10 TCID50/mL."}, "adenovirus": {"system": "adenovirus", "conditions": "background literature; cited from earlier work"}, "papillomavirus": {"system": "papillomavirus", "conditions": "background literature; cited from earlier work"}, "rhinovirus": {"system": "rhinovirus", "conditions": "Proud et al., J Immunol 172:4637-4645, 2004; cited from earlier work"}}, "note": "Entries after “also recorded” stand apart in the source; their conditions may differ. No end group written: not given here.", "data": [{"molecule": "human β-defensin 3 (GIINTLQKYYCRVRGGRCAVLSCLPKEEQIGKCSTRGRKCCRRKK; ends and bridges not checked; cysteine pairing not given here; UniProt P81534 23-67, looked up) [HBD-3, recombinant human β-defensin (Peprotech)]", "values": [{"measurement": "antiviral activity against rhinovirus (Rv16), in words", "setting": "rhinovirus (Rv16); Example 1, FIG. 1", "value": "significantly reduced viral concentration; also recorded: exhibited antiviral activity"}, {"measurement": "antiviral activity against rhinovirus (Rv16), in words", "setting": "rhinovirus (Rv16); Example 2, FIG. 2", "value": "most susceptible"}]}, {"molecule": "human β-defensin 4 (EFELDRICGYGTARCRKKCRSQEYRIGRCPNTYACCLRKWDESLLNRTKP; ends and bridges not checked; cysteine pairing not given here; UniProt Q8WTQ1 23-72, looked up) [HBD-4, recombinant human β-defensin (Peprotech)]", "values": [{"measurement": "antiviral activity against rhinovirus (Rv16), in words", "setting": "rhinovirus (Rv16); Example 1, FIG. 1", "value": "significantly reduced viral concentration; also recorded: exhibited antiviral activity"}]}, {"molecule": "human β-defensin 1 (DHYNCVSSGGQCLYSACPIFTKIQGTCYRGKAKCCK; ends and bridges not checked; cysteine pairing not given here; UniProt P60022 33-68, looked up) [HBD-1, recombinant human β-defensin (Peprotech)]", "values": [{"measurement": "antiviral activity against adenovirus", "setting": "adenovirus", "value": "antiviral activity was observed"}, {"measurement": "antiviral activity against papillomavirus", "setting": "papillomavirus", "value": "antiviral activity was observed"}, {"measurement": "antiviral activity against rhinovirus (Rv16), in words", "setting": "rhinovirus (Rv16); Example 1, FIG. 1", "value": "significantly reduced viral concentration; also recorded: exhibited antiviral activity"}]}, {"molecule": "human β-defensin 2 [HBD-2]", "values": [{"measurement": "ability to inactivate rhinovirus", "setting": "rhinovirus", "value": "unable to inactivate rhinovirus"}, {"measurement": "antiviral activity against adenovirus", "setting": "adenovirus", "value": "not"}, {"measurement": "antiviral activity against papillomavirus", "setting": "papillomavirus", "value": "not"}, {"measurement": "antiviral activity against rhinovirus (Rv16), in words", "setting": "rhinovirus (Rv16); Example 1, FIG. 1", "value": "significantly reduced viral concentration; also recorded: exhibited antiviral activity"}]}, {"molecule": "human neutrophil peptide 3 [HNP-3]", "values": [{"measurement": "antiviral activity against rhinovirus (Rv16), in words", "setting": "rhinovirus (Rv16); Example 2, FIG. 2", "value": "exhibited antiviral activity"}, {"measurement": "concentration at which maximal efficacy was reached", "setting": "rhinovirus (Rv16); Example 2, FIG. 2", "value": 2.5, "unit": "µg/mL"}, {"measurement": "reduction of rhinovirus titer at maximal efficacy", "setting": "rhinovirus (Rv16); Example 2, FIG. 2", "value": 2.3, "unit": "Log10 TCID50/mL"}]}, {"molecule": "human defensin 5 (ATCYCRTGRCATRESLSGVCEISGRLYRLCCR; ends and bridges not checked; cysteine pairing not given here; UniProt Q01523 63-94, looked up, fragment) [HD5, human α-defensin]", "values": [{"measurement": "antiviral activity against adenovirus", "setting": "adenovirus", "value": "antiviral activity was observed"}, {"measurement": "antiviral activity against papillomavirus", "setting": "papillomavirus", "value": "antiviral activity was observed"}]}, {"molecule": "human neutrophil peptide 1 [HNP-1]", "values": [{"measurement": "antiviral activity against adenovirus", "setting": "adenovirus", "value": "antiviral activity was observed"}, {"measurement": "antiviral activity against papillomavirus", "setting": "papillomavirus", "value": "antiviral activity was observed"}, {"measurement": "antiviral activity against rhinovirus (Rv16), in words", "setting": "rhinovirus (Rv16); Example 2, FIG. 2", "value": "exhibited antiviral activity"}, {"measurement": "concentration at which maximal efficacy was reached", "setting": "rhinovirus (Rv16); Example 2, FIG. 2", "value": 5, "unit": "µg/mL"}, {"measurement": "reduction of rhinovirus titer at maximal efficacy", "setting": "rhinovirus (Rv16); Example 2, FIG. 2", "value": 1, "unit": "Log10 TCID50/mL"}]}, {"molecule": "B1", "values": [{"measurement": "antiviral activity against rhinovirus (Rv16), in words", "setting": "rhinovirus (Rv16); Example 2, FIG. 2", "value": "most effective; also recorded: exhibited antiviral activity"}, {"measurement": "concentration at which maximal efficacy was reached", "setting": "rhinovirus (Rv16); Example 2, FIG. 2", "value": 2, "unit": "µg/mL"}, {"measurement": "reduction of rhinovirus titer at maximal efficacy", "setting": "rhinovirus (Rv16); Example 2, FIG. 2", "value": 2.5, "unit": "Log10 TCID50/mL"}]}]}
